# Reference: ChEMBL document CHEMBL1155339, “Characterization of alpha-nitromethyl ketone as a new zinc-binding group based on structural analysis of its complex with carboxypeptidase A” (Bioorg Med Chem Lett, 2009)
# Tests used:
# Carboxypeptidase A1 = target: T1, Carboxypeptidase A1 (Homo sapiens, UniProt P15085); experiment: Inhibition of Carboxypeptidase A assessed as amount of Cl-CPL consumed by UV spectrometer
# T1 sequence (P15085 whole entry): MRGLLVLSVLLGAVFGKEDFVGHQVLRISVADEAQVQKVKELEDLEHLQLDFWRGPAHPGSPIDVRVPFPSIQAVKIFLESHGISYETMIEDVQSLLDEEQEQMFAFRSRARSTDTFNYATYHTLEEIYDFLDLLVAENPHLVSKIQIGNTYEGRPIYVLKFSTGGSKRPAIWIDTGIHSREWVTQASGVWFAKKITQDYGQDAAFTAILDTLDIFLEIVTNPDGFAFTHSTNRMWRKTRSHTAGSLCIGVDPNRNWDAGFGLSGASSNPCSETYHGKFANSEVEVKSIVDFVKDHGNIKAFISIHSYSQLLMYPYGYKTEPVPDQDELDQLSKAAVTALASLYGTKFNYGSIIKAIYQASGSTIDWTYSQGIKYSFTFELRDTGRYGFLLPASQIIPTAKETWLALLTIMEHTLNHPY
# [1] = Dissociation constant, pKa of the compound; format: physicochemical
Structure (SMILES),Ki (Carboxypeptidase A1) [µM],pKa [1]
O=C(O)C(CC(=O)C(F)(F)F)Cc1ccccc1 (racemic),0.2,
O=C(CBr)CC(Cc1ccccc1)C(=O)O (racemic),15,
O=C(C[C@H](Cc1ccccc1)C(=O)O)C[N+](=O)[O-],31,
O=C(CC(Cc1ccccc1)C(=O)O)C[N+](=O)[O-] (racemic),0.43,
O=C(C[C@@H](Cc1ccccc1)C(=O)O)C[N+](=O)[O-],0.16,
O=C(O)C[N+](=O)[O-] [NITROACETIC ACID],,1.68
CC(=O)CC(Cc1ccccc1)C(=O)O (racemic),207,
